Measurements from patent publication US9173840B2, “Multifunctional self-assembling polymeric nanosystems” (Northeastern University, priority 2008, dated 2015).
Like-named read-outs stand apart in the source and are kept apart here.

Legend:
U-2OS cells = experiment: In vitro cytotoxicity MTT assay, U-2OS; settings: Homo sapiens, U2OS, read-out: IC50 anti-proliferative activity
PARP = experiment: Cellular apoptosis assay: cleavage of PARP by Western blot; format: cell-based, human; settings: KHOS and KHOSR2
Text: Whole-cell lysates were immunoblotted with specific antibodies to PARP (Cell Signaling Technology) and its cleavage products. Positive immunoreactions were detected using Super Signal® West Pico Chemiluminescent Substrate. Bands were semiquantified by reverse image scanning densitometry with PhotoShop 7.0 (Adobe, San Jose, Calif.). An area of the gel image that was devoid of signal was assigned to be the background value. Each band of the protein representing cleaved PARP from KHOS or KHOSR2 treated with either doxorubicin, alone, or nanoparticle-loaded with doxorubicin at various concentrations, were analyzed for the density beyond background level. To ensure that the loading of the protein was equal and differences were not being observed because of one specimen having more protein than another, the band corresponding to β-actin was determined for each protein. The density of the protein band was normalized to the β-actin band for the protein and the ratio of the cleaved PARP was normalized by dividing by the ratio of the actin corresponding to each cleaved PARP.

KHOSR2 cells [1] = experiment: In vitro cytotoxicity MTT assay, KHOSR2; settings: Homo sapiens
KHOSR2 cells [2] = experiment: Fluorescence microscopy of cellular doxorubicin uptake; format: cell-based, human; settings: 3 hr incubation
Procedure: For cellular uptake studies, KHOS and KHOSR2 cells were seeded at densities of 5×10^5 cells/well in 6 well plates. MDR1 siRNA was applied to a well of KHOSR2 and incubated for 48 h. Following the incubation, doxorubicin was added to each well and was incubated for additional 3 hr. After incubation, the cells were washed, suspended in fresh RPMI 1640, then visualized on a Nikon Eclipse Ti-U fluorescence microscope equipped with a SPOT RT digital camera (Diagnostic Instruments, Inc., Sterling Heights, Mich.). Fluorescence intensity and cellular localization was analyzed at a wavelength of 488 nm in triplicate in random, different fields.
Cellular uptake studies were based on the fluorescence microscopic procedures of Venne et al. (Cancer Res. 56:3626-3629 (1996)). KHOS and KHOSR2 cells were seeded at densities of 5×10^5 cells/well in 6 well plates and incubated for 24 hr to allow cell attachment. […] After incubation, the cells were washed and resuspended with PBS and were then visualized on a Nikon Eclipse Ti-U fluorescence microscope (Nikon Corp.) equipped with a SPOT RT digital camera (Diagnostic Instruments, Inc., Sterling Heights, Mich.). Fluorescence intensity and cellular localization was analyzed at a wavelength of 488 nm in triplicate different fields at random.

U-2OSR2 cells = experiment: In vitro cytotoxicity MTT assay, U-2OSR2; format: cell-based; settings: Homo sapiens

COc1cccc2c1C(=O)c1c(O)c3c(c(O)c1C2=O)C[C@@](O)(C(=O)CO)C[C@@H]3O[C@H]1C[C@H](N)[C@H](O)[C@H](C)O1 [doxorubicin]
IC50 (U-2OS cells): 0.3 µM | cleavage of PARP / apoptosis induction (PARP): higher concentrations of doxorubicin, alone, induced apoptosis | IC50 (KHOSR2 cells [1]; MDR1, read-out: IC50 of doxorubicin co-treated with MDR1 siRNA-loaded nanoparticles): 0.1 µM | IC50 (KHOSR2 cells [1]; read-out: IC50 anti-proliferative activity): 3 µM | IC50 (KHOSR2 cells [1]; read-out: IC50 of doxorubicin, alone): 10 µM | subcellular distribution of doxorubicin fluorescence (KHOSR2 cells [2]; drug-resistant cell line, Example 2): primarily concentrated in the cytoplasm | subcellular distribution of doxorubicin fluorescence, free doxorubicin (KHOSR2 cells [2]; drug-resistant osteosarcoma cells): primarily concentrated in the cytoplasm | IC50 (U-2OSR2 cells; U-2OSR2, Example 1, nanoparticles loaded with 100 nM MDR1 siRNA, read-out: IC50 for doxorubicin co-treated with the MDR1 siRNA-loaded nanoparticles): 0.06 µM | IC50 (U-2OSR2 cells; U-2OSR2, Example 1, read-out: IC50 for doxorubicin, alone): 6 µM | IC50 (U-2OSR2 cells; U-2OSR2, Example 2, FIG. 17D, read-out: IC50 anti-proliferative activity): 6 µM
